Test results reported in the supplement of paper PMC10307832.

Assays:
Assay in all cases: relative viability (nuclei count vs DMSO), 5 days (fraction); higher = more cells survive
Linsitinib + Luminespib = compound: C[C@]1(O)C[C@@H](c2nc(-c3ccc4ccc(-c5ccccc5)nc4c3)c3c(N)nccn32)C1 [Linsitinib] + CCNC(=O)c1noc(-c2cc(C(C)C)c(O)cc2O)c1-c1ccc(CN2CCOCC2)cc1 [Luminespib] (partner 0.01 µM)
How it was run: (§1)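 Lung cancer cell lines in 1536-well plates got either a single drug or a fixed anchor-drug dose together with five library-drug doses (not always all listed) in √10 steps, by pin tool, on the day after seeding. Nuclei were counted after 5 days, and relative viability is the treated-to-vehicle ratio of nuclei counts. Values are medians of duplicate plates.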

Ispinesib + Alpelisib = compound: Cc1ccc(C(=O)N(CCCN)[C@@H](c2nc3cc(Cl)ccc3c(=O)n2Cc2ccccc2)C(C)C)cc1 [Ispinesib] + Cc1nc(NC(=O)N2CCC[C@H]2C(N)=O)sc1-c1ccnc(C(C)(C)C(F)(F)F)c1 [Alpelisib] (partner 2 µM)
How it was run: as §1

Linsitinib + Bortezomib = compound: C[C@]1(O)C[C@@H](c2nc(-c3ccc4ccc(-c5ccccc5)nc4c3)c3c(N)nccn32)C1 [Linsitinib] + CC(C)C[C@H](NC(=O)[C@H](Cc1ccccc1)NC(=O)c1cnccn1)B(O)O [Bortezomib] (partner 0.002 µM)
How it was run: as §1

Ispinesib + Tozasertib = compound: Cc1ccc(C(=O)N(CCCN)[C@@H](c2nc3cc(Cl)ccc3c(=O)n2Cc2ccccc2)C(C)C)cc1 [Ispinesib] + Cc1cc(Nc2cc(N3CCN(C)CC3)nc(Sc3ccc(NC(=O)C4CC4)cc3)n2)n[nH]1 [Tozasertib] (partner 0.1 µM)
How it was run: as §1

Row | Cell Line | relative viability (Linsitinib + Luminespib; first compound 0.01 µM) | relative viability (Linsitinib + Luminespib; first compound 0.03162 µM) | relative viability (Linsitinib + Luminespib; first compound 0.1 µM) | relative viability (Linsitinib + Luminespib; first compound 0.3162 µM) | relative viability (Linsitinib + Luminespib; first compound 1 µM) | relative viability (Ispinesib + Alpelisib; first compound 0.001 µM) | relative viability (Ispinesib + Alpelisib; first compound 0.003162 µM) | relative viability (Ispinesib + Alpelisib; first compound 0.01 µM) | relative viability (Ispinesib + Alpelisib; first compound 0.03162 µM) | relative viability (Ispinesib + Alpelisib; first compound 0.1 µM) | relative viability (Linsitinib + Bortezomib; first compound 0.01 µM) | relative viability (Linsitinib + Bortezomib; first compound 0.03162 µM) | relative viability (Linsitinib + Bortezomib; first compound 0.1 µM) | relative viability (Linsitinib + Bortezomib; first compound 1 µM) | relative viability (Ispinesib + Tozasertib; first compound 0.001 µM) | relative viability (Ispinesib + Tozasertib; first compound 0.003162 µM) | relative viability (Ispinesib + Tozasertib; first compound 0.01 µM) | relative viability (Ispinesib + Tozasertib; first compound 0.03162 µM) | relative viability (Ispinesib + Tozasertib; first compound 0.1 µM) | relative viability (Linsitinib + Bortezomib; first compound 0.3162 µM)
1 | NCI-H650 | 0.774 | 0.919 | 0.877 | 0.66 | 0.669 | 1.11 | 1.23 | 1.29 | 1.05 | 0.353 | 0.721 | 0.768 | 0.863 | 0.584 | 0.738 | 0.712 | 0.77 | 0.742 | 0.426 | –
2 | A-427 | 0.757 | 0.954 | 1.01 | – | 0.993 | 1.1 | 1.21 | 0.993 | 1 | 1.04 | 0.974 | 1.02 | 0.987 | 0.869 | 0.203 | 0.216 | 0.189 | 0.185 | 0.23 | –
3 | NCI-H2347 | 0.454 | 0.284 | 0.362 | – | 0.389 | 1.04 | 1.13 | 1.18 | 0.94 | 0.655 | 0.885 | 0.737 | 0.941 | 1.05 | 0.529 | 0.545 | 0.65 | 0.55 | 0.52 | 0.77
4 | NCI-H1651 | 0.754 | 0.903 | 0.801 | 0.621 | 0.682 | 0.957 | 0.99 | 1.26 | 1.05 | 0.206 | 0.954 | 0.976 | 0.792 | 0.916 | 0.692 | 0.776 | 0.968 | 0.824 | 0.234 | 0.82
5 | NCI-H23 | 0.218 | 0.207 | 0.211 | 0.219 | 0.203 | 0.547 | 0.679 | 0.785 | 0.731 | 0.459 | 0.96 | 1.17 | 1.06 | 0.589 | 0.428 | 0.414 | 0.74 | 0.33 | 0.272 | 0.681
6 | LOU-NH91 | 0.357 | 0.355 | 0.299 | 0.244 | 0.298 | 0.724 | 0.705 | 0.751 | 0.607 | 0.553 | 0.436 | 0.504 | 0.581 | 0.478 | 0.677 | 0.638 | 0.76 | 0.584 | 0.347 | 0.429
7 | LXF-289 | 0.759 | 0.669 | 0.729 | – | 0.544 | 1.06 | 1.05 | 1.16 | 0.993 | 0.733 | 0.95 | 0.96 | 0.994 | 0.977 | 0.235 | 0.171 | 0.175 | 0.151 | 0.152 | 0.743
